From patent publication US11414416B1, “Compounds and uses thereof” (Foghorn Therapeutics Inc., priority 2019, dated 2022) come the findings set out here.

In assay [1] the target is Nanoluciferase-BRD9 fusion protein (Homo sapiens (Human), UniProt Q9H8M2). The assay is described as follows: SYO1 BRD9 NanoLuc degradation assay. Format: cell-based. As to conditions: Table 5A, SYO-1 cells expressing 3×FLAG-NLuc-BRD9, 6 hours; for DC50: read-out: SYO1 BRD9-NanoLuc degradation IC50. Summed up: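 Degradation was read as loss of nanoluciferase signal (Nano-Glo) after 6 h compound exposure in a stable SYO-1 line carrying 3×FLAG-NLuc-BRD9 (8000 cells/well). Normalised between DMSO (high) and a 1 μM known BRD9 degrader (low).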

The target in a further assay is BRD9 bromodomain (Homo sapiens (Human), UniProt Q9H8M2). As to the kind of experiment: BRD9 bromodomain TR-FRET competition binding assay. The settings on record: Table 4; competition with biotinylated ligand, 3 nM Flag-BRD9, 90 minutes. The gist of the method:
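TEV-cleaved Flag-BRD9 (P133-K239, 3 nM) competed against 3.75 nM biotinylated ligand, with 7.5 nM APC-streptavidin and 0.2 nM Eu-W1024 anti-FLAG, in HEPES pH 7.4, NaCl, TCEP, Tween-20, BSA. Compounds were serially diluted 3-fold; after 90 min at room temperature the 665/615 nm emission ratio was read.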

Molecules are shown by their SMILES. Where only a bound is given, the exact number is not on record here.

Sequence of Nanoluciferase-BRD9 fusion protein (Q9H8M2 whole entry, the tested form may be a part): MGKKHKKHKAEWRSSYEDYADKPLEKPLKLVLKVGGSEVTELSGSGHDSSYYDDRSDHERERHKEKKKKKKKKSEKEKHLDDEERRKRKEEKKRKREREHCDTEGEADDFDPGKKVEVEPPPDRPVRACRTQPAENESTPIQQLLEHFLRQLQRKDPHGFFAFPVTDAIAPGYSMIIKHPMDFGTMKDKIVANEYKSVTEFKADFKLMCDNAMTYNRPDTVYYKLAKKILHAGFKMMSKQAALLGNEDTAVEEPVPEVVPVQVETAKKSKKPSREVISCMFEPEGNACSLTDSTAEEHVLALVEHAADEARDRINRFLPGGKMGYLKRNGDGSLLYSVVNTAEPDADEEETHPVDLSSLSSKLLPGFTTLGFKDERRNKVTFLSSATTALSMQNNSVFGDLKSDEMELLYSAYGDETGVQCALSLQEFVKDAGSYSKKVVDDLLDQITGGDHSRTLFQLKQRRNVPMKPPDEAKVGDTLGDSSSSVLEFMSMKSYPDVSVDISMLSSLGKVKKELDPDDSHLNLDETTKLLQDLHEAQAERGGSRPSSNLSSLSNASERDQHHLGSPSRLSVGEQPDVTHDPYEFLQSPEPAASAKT
Sequence of BRD9 bromodomain (Q9H8M2 133-239): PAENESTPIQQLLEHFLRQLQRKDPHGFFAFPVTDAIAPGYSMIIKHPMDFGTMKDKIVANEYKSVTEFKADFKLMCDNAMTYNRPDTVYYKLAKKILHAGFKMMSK

By IC50 is commonly meant the concentration at which inhibition is half-maximal. Read a high IC50 as weaker potency in that assay. For the compound `COc1cc(-c2cn(C)c(=O)c3cnccc23)cc(OC)c1CN(C)CC1CC2(CCN(C(=O)CCOCCOc3cccc4c3C(=O)N(C3CCC(=O)NC3=O)C4=O)CC2)O1` (stereo not shown) [Compound D159], the DC50 in assay [1] was 10 to 100 nM. At BRD9 bromodomain, this compound gave an IC50 below 10 nM.
In the same order, the values of `COc1cc(-c2cn(C)c(=O)c3cnccc23)cc(OC)c1CN(C)CC1CC12CCN(C(=O)CCOCCOc1cccc3c1C(=O)N(C1CCC(=O)NC1=O)C3=O)CC2` (stereo not shown) [Compound D163] are 10 to 100 nM and below 10 nM.
Regarding `COc1cc(-c2cn(C)c(=O)c3cnccc23)cc(OC)c1CN1CC[C@H]1C(=O)NCCCCCCCCNc1cccc2c1C(=O)N(C1CCC(=O)NC1=O)C2=O` (stereo partly drawn) [Compound D11, (2S)-1-[[2,6-dimethoxy-4-(2-methyl-1-oxo-2,7-naphthyridin-4-yl)phenyl]methyl]-N-(8-[[2-(2,6-dioxopiperidin-3-yl)-1,3-dioxoisoindol-4-yl]amino]octyl)azetidine-2-carboxamide], the concentration for half-maximal inhibition (IC50) is below 10 nM in assay [1] and 10 to 100 nM on BRD9 bromodomain.
The corresponding values for `COc1cc(-c2cn(C)c(=O)c3cnccc23)cc(OC)c1CN1CCC2CCN(C(=O)CCOCCOc3cccc4c3C(=O)N(C3CCC(=O)NC3=O)C4=O)CC21` (stereo not shown) [Compound D91] are 10 to 100 nM and 10 to 100 nM.
Take `COc1cc(-c2cn(C)c(=O)c3cnccc23)cc(OC)c1CN1CC2(CCN(C(=O)CCOCCOc3ccc4c(c3)C(=O)N(C3CCC(=O)NC3=O)C4=O)CC2)C1` (stereo not shown) [Compound D118]: the DC50 in assay [1] is 10 to 100 nM. The compound also registered an IC50 on BRD9 bromodomain below 10 nM.
As to `COc1cc(-c2cn(C)c(=O)c3cnccc23)cc(OC)c1CN1CCC2(CC1)CC(NC(=O)CCOCCOc1ccc3c(c1)C(=O)N(C1CCC(=O)NC1=O)C3=O)C2` (stereo not shown) [Compound D116], the DC50 in assay [1] was 10 to 100 nM. This compound registered a half-inhibitory concentration (IC50) at BRD9 bromodomain below 10 nM.
On to `COc1cc(-c2cn(C)c(=O)c3cnccc23)cc(OC)c1CN1CCC2CCN(C(=O)CCOCCOc3ccc4c(c3)C(=O)N(C3CCC(=O)NC3=O)C4=O)CC21` (stereo not shown) [Compound D123], for which the IC50 (in assay [1]; on BRD9 bromodomain) was below 10 nM throughout.
Turning to `COc1cc(-c2cn(C)c(=O)c3cnccc23)cc(OC)c1CN1CC(C(=O)N(C)CCCCCCCCNc2cccc3c2C(=O)N(C2CCC(=O)NC2=O)C3=O)C1` (stereo not shown) [Compound D14, 1-[[2,6-dimethoxy-4-(2-methyl-1-oxo-1,2-dihydro-2,7-naphthyridin-4-yl)phenyl]methyl]-N-(8-[[2-(2,6-dioxopiperidin-3-yl)-1,3-dioxo-2,3-dihydro-1H-isoindol-4-yl]amino]octyl)-N-methylazetidine-3-carboxamide], the IC50 (in assay [1]; at BRD9 bromodomain) was below 10 nM each time.
Turning to `COc1cc(-c2cn(C)c(=O)c3cnccc23)cc(OC)c1CN(C)CC1CC2CN(C(=O)CCOCCOc3cccc4c3C(=O)N(C3CCC(=O)NC3=O)C4=O)C[C@H]2C1` (stereo partly shown) [Compound D177], the DC50 in assay [1] fell in the range of 10 to 100 nM. The half-inhibitory concentration (IC50) on BRD9 bromodomain is below 10 nM.
For `COc1cc(-c2cn(C)c(=O)c3cnccc23)cc(OC)c1CN(C)CCCOCCN1CCN(c2ccc3c(c2)C(=O)N(C2CCC(=O)NC2=O)C3=O)CC1` (stereo not shown) [Compound D70, 5-(4-[2-[3-([[2,6-dimethoxy-4-(2-methyl-1-oxo-2,7-naphthyridin-4-yl)phenyl]methyl](methyl)amino)propoxy]ethyl]piperazin-1-yl)-2-(2,6-dioxopiperidin-3-yl)isoindole-1,3-dione formic acid], the IC50 (in assay [1]; on BRD9 bromodomain) was 10 to 100 nM each time.
Turning to `COc1cc(-c2cn(C)c(=O)c3cnccc23)cc(OC)c1CN(C)CC1CC2(C1)CN(C(=O)CCOCCOc1cccc3c1C(=O)N(C1CCC(=O)NC1=O)C3=O)C2` (stereo not shown) [Compound D164], the DC50 in assay [1] lay in the range of 10 to 100 nM. For the same compound, at BRD9 bromodomain, the 50% inhibitory concentration (IC50) is below 10 nM.
The corresponding values for `COc1cc(-c2cn(C)c(=O)c3cnccc23)cc(OC)c1CN1CCCC(OCc2cn(CCCOc3ccc4c(c3)C(=O)N(C3CCC(=O)NC3=O)C4=O)nn2)C1` (stereo not shown) [Compound D151] are 10 to 100 nM and below 10 nM.
On to `COc1cc(-c2cn(C)c(=O)c3cnccc23)cc(OC)c1CN1CCC12CN(C(=O)CCOCCOc1cccc3c1C(=O)N(C1CCC(=O)NC1=O)C3=O)C2` (stereo not shown) [Compound D86], for which the IC50 in assay [1] lay in the range of 100 to 1000 nM; on BRD9 bromodomain, 10 to 100 nM.
In the same order, the values of `COc1cc(-c2cn(C)c(=O)c3cnccc23)cc(OC)c1CN(C)C(=O)CCCCN1CCOC2(CCN(c3ccc4c(c3)C(=O)N(C3CCC(=O)NC3=O)C4=O)CC2)C1` (stereo not shown) [Compound D72, N-[[2,6-dimethoxy-4-(2-methyl-1-oxo-2,7-naphthyridin-4-yl)phenyl]methyl]-5-[9-[2-(2,6-dioxopiperidin-3-yl)-1,3-dioxoisoindol-5-yl]-1-oxa-4,9-diazaspiro[5.5]undecan-4-yl]-N-methylpentanamide formic acid] are below 10 nM and below 10 nM.
In the case of `COc1cc(-c2cn(C)c(=O)c3cnccc23)cc(OC)c1CN1CCC2(CCN(C(=O)CCOCCOc3ccc4c(c3)C(=O)N(C3CCC(=O)NC3=O)C4=O)C2)C1` (stereo not shown) [Compound D121], the IC50 (in assay [1]; on BRD9 bromodomain) was 10 to 100 nM each time.
`COc1cc(-c2cn(C)c(=O)c3cnccc23)cc(OC)c1CN1CC[C@@H]1C(=O)NCCCCCCCCNc1cccc2c1C(=O)N(C1CCC(=O)NC1=O)C2=O` (stereo partly shown) [Compound D10]: the IC50 in assay [1] was below 10 nM; on BRD9 bromodomain, 10 to 100 nM.
In the same order, the values of `COc1cc(-c2cn(C)c(=O)c3cnccc23)cc(OC)c1CN(C)CC12CC(C(=O)NCCCCCNc3cccc4c3C(=O)N(C3CCC(=O)NC3=O)C4=O)(C1)C2` (stereo not shown) [Compound D56, 3-[([[2,6-dimethoxy-4-(2-methyl-1-oxo-2,7-naphthyridin-4-yl)phenyl]methyl](methyl)amino)methyl]-N-(5-[[2-(2,6-dioxopiperidin-3-yl)-1,3-dioxoisoindol-4-yl]amino]pentyl)bicyclo[1.1.1]pentane-1-carboxamide] are below 10 nM and below 10 nM.
For the compound `COc1cc(-c2cn(C)c(=O)c3cnccc23)cc(OC)c1CN1CC2(C1)CN(C(=O)COc1cccc3c1C(=O)N(C1CCC(=O)NC1=O)C3=O)C2` (stereo not shown) [Compound D36, 4-(2-(6-(2,6-dimethoxy-4-(2-methyl-1-oxo-1,2-dihydro-2,7-naphthyridin-4-yl)benzyl)-2,6-diazaspiro[3.3]heptan-2-yl)-2-oxoethoxy)-2-(2,6-dioxopiperidin-3-yl)isoindoline-1,3-dione], the DC50 in assay [1] fell in the range of 100 to 1000 nM. Further, at BRD9 bromodomain, the IC50 was below 10 nM.
On to `COc1cc(-c2cn(C)c(=O)c3cnccc23)cc(OC)c1CN1CC(S(=O)(=O)NCCCCCNc2ccc3c(c2)C(=O)N(C2CCC(=O)NC2=O)C3=O)C1` (stereo not shown) [Compound D23, 1-[[2,6-dimethoxy-4-(2-methyl-1-oxo-1,2-dihydro-2,7-naphthyridin-4-yl)phenyl]methyl]-N-(5-[[2-(2,6-dioxopiperidin-3-yl)-1,3-dioxo-2,3-dihydro-1H-isoindol-5-yl]amino]pentyl) azetidine-3-sulfonamide formic acid], for which the concentration for half-maximal inhibition (IC50) (in assay [1]; at BRD9 bromodomain) was below 10 nM in each case.
As for `COc1cc(-c2cn(C)c(=O)c3cnccc23)cc(OC)c1CN1CCN(C(=O)CCCOc2cccc3c2C(=O)N(C2CCC(=O)NC2=O)C3=O)CC1` (stereo not shown) [Compound D33, 4-(4-(4-(2,6-dimethoxy-4-(2-methyl-1-oxo-1,2-dihydro-2,7-naphthyridin-4-yl)benzyl)piperazin-1-yl)-4-oxobutoxy)-2-(2,6-dioxopiperidin-3-yl)isoindoline-1,3-dione], the IC50 (in assay [1]; at BRD9 bromodomain) was below 10 nM throughout.
Take `COc1cc(-c2cn(C)c(=O)c3cnccc23)cc(OC)c1CN1CC(S(=O)(=O)NCCCCCCCCNc2cccc3c2C(=O)N(C2CCC(=O)NC2=O)C3=O)C1` (stereo not shown) [Compound D12, 1-[[2,6-dimethoxy-4-(2-methyl-1-oxo-1,2-dihydro-2,7-naphthyridin-4-yl)phenyl]methyl]-N-(8-[[2-(2,6-dioxopiperidin-3-yl)-1,3-dioxo-2,3-dihydro-1H-isoindol-4-yl]amino]octyl)azetidine-3-sulfonamide]: the IC50 (in assay [1]; on BRD9 bromodomain) was below 10 nM each time.
On to `COc1cc(-c2cn(C)c(=O)c3cnccc23)cc(OC)c1CN1CCC(OC2CCN(C(=O)CCOCCOc3cccc4c3C(=O)N(C3CCC(=O)NC3=O)C4=O)CC2)CC1` (stereo not shown) [Compound D97], for which the DC50 in assay [1] was 10 to 100 nM. The half-inhibitory concentration (IC50) at BRD9 bromodomain was below 10 nM.
For the compound `COc1cc(-c2cn(C)c(=O)c3cnccc23)cc(OC)c1CN1CC2(CCN(C(=O)CCOCCOc3ccc4c(c3)C(=O)N(C3CCC(=O)NC3=O)C4=O)C2)C1` (stereo not shown) [Compound D122], the IC50 (in assay [1]; on BRD9 bromodomain) was below 10 nM each time.
For `COc1cc(-c2cn(C)c(=O)c3cnccc23)cc(OC)c1CN(C)C1CC2CN(C(=O)CCOCCOc3cccc4c3C(=O)N(C3CCC(=O)NC3=O)C4=O)CC2C1` (stereo not shown) [Compound D160], in assay [1], the DC50 is 10 to 100 nM. This compound gave a half-maximal inhibitory concentration (IC50) at BRD9 bromodomain below 10 nM.
The corresponding values for `COc1cc(-c2cn(C)c(=O)c3cnccc23)cc(OC)c1CN1CCC2(CC1)CN(C(=O)CCOCCOc1ccc3c(c1)C(=O)N(C1CCC(=O)NC1=O)C3=O)C2` (stereo not shown) [Compound D119] are 10 to 100 nM and below 10 nM.
The corresponding values for `COc1cc(-c2cn(C)c(=O)c3cnccc23)cc(OC)c1CN1CC[C@H]1C(=O)NCCN(C)CCNc1cccc2c1C(=O)N(C1CCC(=O)NC1=O)C2=O` (stereo partly drawn) [Compound D25, (2S)-1-[[2,6-dimethoxy-4-(2-methyl-1-oxo-1,2-dihydro-2,7-naphthyridin-4-yl)phenyl]methyl]-N-[2-[(2-[[2-(2,6-dioxopiperidin-3-yl)-1,3-dioxo-2,3-dihydro-1H-isoindol-4-yl]amino]ethyl)(methyl)amino]ethyl]azetidine-2-carboxamide] are 100 to 1000 nM and below 10 nM.
